Patent publication US20140178327A1, “Antimicrobial Ophthalmic Devices” (CooperVision International Holding Company, LP, priority 2012, published 2014)

Columns and labels:
Type in all cases: cell-based
[1] = test system: Pseudomonas aeruginosa (PA) ATCC 9027; assay: In vitro biofilm assay; settings: for Log εPLL (log CFU recovered per εPLL lens): 10^7 CFU/mL, 2 hours adhesion, 24 hours biofilm growth; for Log Reduction: versus control lens
Method: (§1) Lenses at the 0 hour time point and from the 168 hour time point were used to test whether they supported biofilm formation. The lenses were rinsed for 5 seconds in 2.5 mL of sterile PBS then transferred into an individual well of a 24-well plate containing 1.0 mL of bacterial inoculum at approximately 10^7CFU/mL, prepared as described in Example 5. The plates were incubated for 2 hours on a 37° C. with gentle rotary agitation. The remaining inoculum, i.e. not incubated with lenses, was also incubated on the shaker for the duration of each experiment to determine the cfu/mL of the inoculum at t=2 hr and t=24 hr. After 2 hours incubation each lens was washed using the bacterial wash step described in Example 5 then placed on an insert of a 24-well plate for biofilm formation as described below. The inoculum concentration (at t=0 hr and 2 hr) was confirmed by serial dilution, plating onto TSA, incubating overnight at 37° C. and colony counting.
(§2) Custom-made mushroom-shaped stainless steel inserts, depicted in FIG. 1, were placed in each well of a 24-well plate. The cap portion of each insert has a diameter of approximately 14 mm and a curvature to match the posterior surface of a contact lens. The height of each insert is approximately 11 mm. One mL of sterile media/diluent was added to each well. Each preloaded, washed lens (as described above) was placed on the top (cap portion) of an insert, convex side up. The dimensions of the inserts and the volume of the media are such that the periphery of the placed lens is in contact with the media/diluent and the center portion of the lens is at the liquid/air interface. Plates were loosely sealed to prevent evaporation, and incubated for 24 hours at 37° C., with rotary agitation. After incubation, each lens was subjected to the bacterial wash step as described in Example 5. Bacteria were recovered from the washed lenses and log kill calculated as described above in Example 5. Each t-24 hr inoculum concentration was confirmed as described above for t=0 and t=2 hr time points.

[2] = test system: Serratia marcescens (SM) ATCC 6538; assay: In vitro biofilm assay; settings: for Log εPLL (log CFU recovered per εPLL lens): 10^7 CFU/mL, 2 hours adhesion, 24 hours biofilm growth; for Log Reduction: versus control lens
Method: as §1, §2

[3] = test system: Staphylococcus aureus (SA) ATCC 13880; assay: In vitro biofilm assay; settings: for Log εPLL (log CFU recovered per εPLL lens): 10^7 CFU/mL, 2 hours adhesion, 24 hours biofilm growth; for Log Reduction: versus control lens
Method: as §1, §2

[4] = test system: Pseudomonas aeruginosa (PA) ATCC 9027; assay: In vitro bioactivity assay; settings: for log kill εPLL: Formulation F lens autoclaved in 500 ppm εPLL in PBS
Method: (§3) Cultures were prepared from growing a single colony of each of the bacterial species shown in Table 3 below in 50 ml. trypticase soy broth (TSB) overnight at 37° C. on a rotary shaker. 1 ml of each culture was centrifuged, and the bacterial pellet resuspended in 1.0 ml of the diluent shown in Table 3, where PBST is 19 mM PBS at pH 7.3 (0.83 wt. % NaCl, 0.03 wt. % sodium phosphate monobasic, and 0.24% sodium phosphate dibasic) with 0.05% Tween. For each bacterial species, a suspension of approximately 10^8CFU/mL was prepared by diluting the bacterial suspension to achieve the optical density indicated in Table 3.
(§4) Each suspension was further diluted to approximately 10^4CFU/mL (low inoculum) or 10^7CFU/mL (high inoculum) using the above diluents to make the bacterial inoculums for testing bioactivity of lenses.
(§5) Each lens was rinsed in 2.5 ml sterile PBS for a few seconds, and transferred into an individual well of a 24-well plate containing 1.0 ml of bacteria inoculum. The plates were incubated at 37° C. with gentle shaking. The original inoculums were incubated for the duration of the experiment to confirm the concentrations at each sample recovery time point. At the time point tested, each lens was removed from its well and transferred to a well of a 12-well plate containing 2.5 mL of sterile PBST. The plate was gently swirled gently for about 30 seconds. This step was repeated once for each lens. Such 2× wash step is referred to herein as the bacterial wash step.
(§6) Each washed lens was placed in a microcentrifuge tube containing 1 ml of Dey-Engley (DE) neutralizing broth and adhered bacteria were removed by a combination of sonication for about 2 minutes and vortexing for about 10 minutes. Serial dilutions were made for each recovered cell suspension using DE neutralizing broth and suitable dilutions were plated onto TSA. Plates were incubated overnight at 37° C. and CFUs were counted.
(§7) The CFU for each plate was multiplied by the dilution factor (DF) as well as the plating dilution factor (PDF). The total CFUs recovered for a given sample were then converted to the log 10. To calculate the log kill of an antimicrobial lens, the log of CFU/lens of the antimicrobial lens is subtracted from that of the control lens. For example, if the mean log 10 value of an antimicrobial lens is 1.05 and the mean log 10 value of an otherwise identical control lens lacking the active antimicrobial agent is 5.52, the log kill is 5.52−1.05=4.47.

[5] = test system: Serratia marcescens (SM) ATCC 6538; assay: In vitro bioactivity assay; settings: for log kill εPLL: Formulation F lens autoclaved in 500 ppm εPLL in PBS; for log kill of SM: ionic silicone hydrogel contact lens with about 10 μg PQ-1 and/or about 200 μg εPLL, 24 hour incubation, 10^7 inoculum
Method: as §3, §4, §5, §6, §7

[6] = test system: Staphylococcus aureus (SA) ATCC 13880; assay: In vitro bioactivity assay; settings: for log kill εPLL: Formulation F lens autoclaved in 500 ppm εPLL in PBS; for log kill of SA: ionic silicone hydrogel contact lens with about 10 μg PQ-1 and/or about 200 μg εPLL, 24 hour incubation, 10^7 inoculum
Method: as §3, §4, §5, §6, §7

[7] = lenses packaged in PBS containing 30 μg/ml PQ-1
[8] = Formulation F lenses without εPLL, 72 hours in PBS plus PQ-1, high inoculum (10^7), 24-hour incubation
[9] = SM, Formulation F lenses without εPLL, 72 hours in PBS plus PQ-1, high inoculum (10^7), 24-hour incubation
[10] = SA, Formulation F lenses without εPLL, 72 hours in PBS plus PQ-1, high inoculum (10^7), 24-hour incubation

Substance: ε-polylysine [εPLL]
- Log εPLL (log CFU recovered per εPLL lens) ([1]; 0 hr wash lenses): 0.9
- Log Reduction ([1]; 0 hr wash lenses): 5.0
- Log εPLL (log CFU recovered per εPLL lens) ([1]; 168 hr wash lenses): 0.6
- Log Reduction ([1]; 168 hr wash lenses): 4.9
- Log εPLL (log CFU recovered per εPLL lens) ([2]; 0 hr wash lenses): 1.0
- Log Reduction ([2]; 0 hr wash lenses): 3.5
- Log εPLL (log CFU recovered per εPLL lens) ([2]; 168 hr wash lenses): 3.8
- Log Reduction ([2]; 168 hr wash lenses): 1.7
- Log εPLL (log CFU recovered per εPLL lens) ([3]; 0 hr wash lenses): 0.8
- Log Reduction ([3]; 0 hr wash lenses): 3.7
- Log εPLL (log CFU recovered per εPLL lens) ([3]; 168 hr wash lenses): 3.1
- Log Reduction ([3]; 168 hr wash lenses): 2.4
- log kill εPLL ([4]; 2 hr): 2.63
- log kill εPLL ([4]; 6 hr): 4.04
- log kill εPLL ([4]; 24 hr): ≧4.04
- log kill εPLL ([5]; SM, 2 hr): 0.19
- log kill εPLL ([5]; SM, 6 hr): 0.74
- log kill εPLL ([5]; SM, 24 hr): 1.63
- log kill of SM [5]: ~1.5 log
- log kill εPLL ([6]; SA, 2 hr): −0.06
- log kill εPLL ([6]; SA, 6 hr): 0.37
- log kill εPLL ([6]; SA, 24 hr): 1.85
- log kill of SA [6]: ~2 log

Substance: polyquarternium-1 [PQ-1]
- antimicrobial activity in biofilm assay [1, 7]: lack of antimicrobial activity
- antimicrobial activity in biofilm assay [2, 7]: lack of antimicrobial activity
- log kill 10 μ/ml PQ-1 ([4]; 24 hr, Formulation F lens without εPLL): −0.23
- log kill at 10 μg/ml PQ-1 [4, 8]: −0.23
- log kill at 30 μg/ml PQ-1 [4, 8]: 0.16
- log kill at 100 μg/ml PQ-1 [4, 8]: 3.43
- log kill 10 μ/ml PQ-1 ([5]; SM, 24 hr, Formulation F lens without εPLL): 0.55
- log kill at 10 μg/ml PQ-1 [5, 9]: −0.55
- log kill at 30 μg/ml PQ-1 [5, 9]: 0.55
- log kill at 100 μg/ml PQ-1 [5, 9]: 0.31
- log kill of SM [5]: no significant activity
- log kill 10 μ/ml PQ-1 ([6]; SA, 24 hr, Formulation F lens without εPLL): −0.74
- log kill at 10 μg/ml PQ-1 [6, 10]: −0.54
- log kill at 30 μg/ml PQ-1 [6, 10]: 1.47
- log kill at 100 μg/ml PQ-1 [6, 10]: 3.04
- log kill of SA [6]: no significant activity
